Consider 11 molecules from patent US8637525B2, “Compounds for the reduction of beta-amyloid production” (Bristol-Myers Squibb Company, priority 2009, dated 2014).

SMILES strings stand for the structures. Read-outs that look alike come from different tables or passages of the source.

The test system of the assay is Aβ1-42 production. In words: Cellular assay for inhibition of Aβ1-42 production (H4 APP751 SWE clone 8.20). In kind it is cell-based. Conditions: H4 APP751 SWE clone 8.20 cells, 19 h incubation. How it is done:
Cellular Assays for Inhibition of Aβ1-40 and Aβ1-42 Production
H4 cells stably transfected with APP751 containing the Swedish mutation (H4 APP751 SWE clone 8.20, developed at BMS) were maintained in log phase through twice weekly passage at a 1:20 split. […] Following incubation for 19 h in 5% CO2 at 37° C., plates were briefly centrifuged (1000 rpm, 5 min). A 10 μl aliquot from each well was transferred to a second assay plate (Costar 3709) for Aβ40 measurements. Antibody cocktails were freshly prepared by dilution into 40 mM Tris-HCl (pH 7.4) with 0.2% BSA and added to assay plates. For Aβ42 measurements, antibodies specific for the Aβ42 neoepitope (565, developed at BMS; conjugated to the Wallac reagent (Perkin Elmer)) and the N-terminal sequence of Aβ peptide (26D6, developed at SIBIA; conjugated to APC (Perkin Elmer)) were mixed and 20 μl of the mixture was added to each well of the incubated cell plate yielding a final concentration of 0.8 ng/well 565 and 75 ng/well 26D6. For the Aβ40 measurements, antibodies specific for the Aβ40 neoepitope (TSD, developed at BMS; conjugated to the Wallac reagent (Perkin Elmer)) and 26D6 as described above were mixed and 20 μl of the mixture was added to the 10 μl aliquots which had been removed previously from the cell plate yielding a final concentration of 1.6 ng/well TSD and 17.5 ng/well 26D6. Assay plates containing antibodies were sealed with aluminum foil and incubated overnight at 4° C. Signal was determined using a Viewlux counter (Perkin Elmer) and IC50 values determined using curve fitting in CurveMaster (Excel Fit based).

The mark [1] stands for this setting: 19 h, class symbols, read-out: Activity Rating (Aβ42 cellular IC50).
Setting [2] is: class symbols, read-out: Activity Rating (Aβ42 cellular IC50).
Where [3] appears, read: 19 h, read-out: Activity Rating (Aβ42 cellular IC50), numeric value.

For `CNc1nc(Nc2ccc(-n3cnc(Cl)c3)c(OC)c2)nc2c1C=CCC2(O)c1ccccc1` (centres unmarked) [Example 177, 2-(4-(4-chloro-1H-imidazol-1-yl)-3-methoxyphenylamino)-4-(methylamino)-8-phenyl-7,8-dihydroquinazolin-8-ol], the half-inhibitory concentration (IC50) (in general, the midpoint of a concentration-inhibition curve) under setting [1] fell in the range of 0.01 to 0.1 µM.

Turning to `COc1cc(Nc2nc3c(c(N4CCC[C@@H]4C)n2)COC3c2ccc(F)cc2)ccc1-n1cnc(Cl)c1` (single isomer, unassigned) [Example 74A], the IC50 under setting [1] lay within 0.01 to 0.1 µM.

Turning to `COc1cc(Nc2nc3c(c(N4CCC4)n2)CCC3c2ccc(OC(F)(F)F)cc2)ccc1-n1cnc(Cl)c1` (single isomer, unassigned) [Example 101A, 4-(azetidin-1-yl)-N-(4-(4-chloro-1H-imidazol-1-yl)-3-methoxyphenyl)-7-(4-(trifluoromethoxy)phenyl)-6,7-dihydro-5H-cyclopenta[d]pyrimidin-2-amine], under setting [2], the concentration for half-maximal inhibition (IC50) was 0.0015 to 0.0099 µM.

As to `CNc1nc(Nc2ccc(-n3cnc(C)n3)c(OC)c2)nc2c1CCC2c1ccc(F)cc1F` (centres unmarked) [Example 193, 7-(2,4-difluorophenyl)-N2-(3-methoxy-4-(3-methyl-1H-1,2,4-triazol-1-yl)phenyl)-N4-methyl-6,7-dihydro-5H-cyclopenta[d]pyrimidine-2,4-diamine], the IC50 under setting [1] was in the range of 0.01 to 0.1 µM.

Consider `COc1cc(Nc2nc3c(c(N4CC(F)(F)C4)n2)CCC3c2ccc(OC(F)(F)F)cc2)ccc1-n1cnc(Cl)c1` (single isomer, unassigned) [Example 99B, N-(4-(4-chloro-1H-imidazol-1-yl)-3-methoxyphenyl)-4-(3,3-difluoroazetidin-1-yl)-7-(4-(trifluoromethoxy)phenyl)-6,7-dihydro-5H-cyclopenta[d]pyrimidin-2-amine], for which the IC50 under setting [3] is 0.19 µM.

For `CCNc1nc(Nc2ccc(-n3cnc(Cl)c3)c(OC)c2)nc2c1CN(CC(F)F)CC2c1ccccc1` (centres unmarked) [Example 197B, N4-ethyl-N2-(3-methoxy-4-(4-chloro-1H-13-imidazol-1-yl)phenyl)-8-phenyl-6-(2,2-difluoroethyl)-5,6,7,8-tetrahydropyrido[4,3-d]pyrimidine-2,4-diamine], the IC50 under setting [1] is 0.0015 to 0.0099 µM.

Take `CCNc1nc(Nc2ccc(-n3ncnc3C)c(F)c2)nc2c1COCC2c1ccc(C(F)(F)F)cc1` (centres unmarked) [Example 119A, N4-ethyl-N2-(3-fluoro-4-(5-methyl-1H-1,2,4-triazol-1-yl)phenyl)-8-(4-(trifluoromethyl)phenyl)-7,8-dihydro-5H-pyrano[4,3-d]pyrimidine-2,4-diamine]: the half-maximal inhibitory concentration (IC50) under setting [3] turned out to be 0.0074 µM.

On to `CNc1nc(Nc2ccc(C(=O)N(C)C)cc2)nc2c1CCC2c1ccccc1` (centres unmarked) [Example 243, N,N-dimethyl-4-(4-(methylamino)-7-phenyl-6,7-dihydro-5H-cyclopenta[d]pyrimidin-2-ylamino)benzamide], for which the concentration for half-maximal inhibition (IC50) under setting [1] is 0.1 to 1 µM.

As for `CNc1nc(Nc2ccc(-n3cnc(C)n3)c(OC)c2)nc2c1CCC2c1ccc(F)cc1F` (single isomer, unassigned) [Example 193A, 7-(2,4-difluorophenyl)-N2-(3-methoxy-4-(3-methyl-1H-1,2,4-triazol-1-yl)phenyl)-N4-methyl-6,7-dihydro-5H-cyclopenta[d]pyrimidine-2,4-diamine], the 50% inhibitory concentration (IC50) under setting [2] lay within 0.1 to 1 µM.

With `CCNc1nc(Nc2ccc(-n3cnc(Cl)c3)c(OC)c2)nc2c1COCC2c1ccc(F)cc1` (centres unmarked) [Example 56B, N2-(4-(4-chloro-1H-imidazol-1-yl)-3-methoxyphenyl)-N4-ethyl-8-(4-fluorophenyl)-7,8-dihydro-5H-pyrano[4,3-d]pyrimidine-2,4-diamine], the IC50 under setting [2] fell in the range of 0.01 to 0.1 µM.

On to `CCNc1nc(Nc2ccc(-n3cnc(Cl)c3)c(OC)c2)nc2c1CN(C(=O)C1CC1)CC2c1ccccc1` (centres unmarked) [Example 132A, (2-(4-(4-chloro-1H-imidazol-1-yl)-3-methoxyphenylamino)-4-(ethylamino)-8-phenyl-7,8-dihydropyrido[4,3-d]pyrimidin-6(5H)-yl)(cyclopropyl)methanone], for which the IC50 under setting [3] amounted to 0.015 µM.
